These results are taken from ChEMBL document CHEMBL6087424, “Opportunities and Challenges of Arginase Inhibitors in Cancer: A Medicinal Chemistry Perspective” (J Med Chem, 2024).

Structures are written as SMILES.

In experiment [1] the target is T1, Arginase-2, mitochondrial (Homo sapiens, UniProt P78540).
T1 sequence (P78540 whole entry): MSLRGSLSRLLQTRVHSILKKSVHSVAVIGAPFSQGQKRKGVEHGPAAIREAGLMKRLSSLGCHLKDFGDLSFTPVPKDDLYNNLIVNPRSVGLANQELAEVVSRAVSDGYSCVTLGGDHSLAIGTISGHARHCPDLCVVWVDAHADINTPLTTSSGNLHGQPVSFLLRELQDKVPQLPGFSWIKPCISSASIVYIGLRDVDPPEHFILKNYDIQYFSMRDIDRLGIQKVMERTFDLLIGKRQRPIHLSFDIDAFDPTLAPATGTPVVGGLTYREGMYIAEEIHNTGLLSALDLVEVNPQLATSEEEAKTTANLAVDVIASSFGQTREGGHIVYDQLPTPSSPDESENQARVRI
Nature of the experiment: Inhibition of human recombinant ARG2.

Experiment [2] deals with T2, Arginase-1 (Homo sapiens, UniProt P05089).
T2 sequence (P05089 whole entry): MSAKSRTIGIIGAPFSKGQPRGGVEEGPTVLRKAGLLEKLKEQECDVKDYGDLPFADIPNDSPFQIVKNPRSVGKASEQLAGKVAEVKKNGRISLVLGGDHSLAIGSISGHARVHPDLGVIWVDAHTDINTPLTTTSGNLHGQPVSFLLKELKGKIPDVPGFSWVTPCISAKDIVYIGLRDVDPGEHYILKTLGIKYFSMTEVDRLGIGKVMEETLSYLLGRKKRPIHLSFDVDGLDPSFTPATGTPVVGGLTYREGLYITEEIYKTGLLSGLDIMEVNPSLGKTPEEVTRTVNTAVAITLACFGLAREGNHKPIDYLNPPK
Nature of the experiment: Inhibition of ARG1 (unknown origin).

Experiment [3] deals with T1, Arginase-2, mitochondrial. Nature of the experiment: Inhibition of ARG2 (unknown origin).
The target in experiment [4] is T2, Arginase-1. Nature of the experiment: Binding affinity to human recombinant ARG1 assessed as inhibition constant.
Experiment [5] concerns the target T1, Arginase-2, mitochondrial. The experiment is described as follows: Inhibition of human recombinant ARG2 extracted from Escherichia coli.
For experiment [6], the target named is T2, Arginase-1. Nature of the experiment: Inhibition of N-terminal hexa-histidine full-length human ARG1 extracted from Escherichia coli BL21 (DE3) Rosetta competent cells.

In general, IC50 refers to the concentration that inhibits the measured activity by half. In the case of `N[C@@H](CC/C=C/B(O)O)C(=O)O`, in experiment [1], the half-maximal inhibitory concentration (IC50) stood at 15 µM.

`O=C(O)[C@@]1(CCCCB(O)O)CCCN1`: the IC50 was 0.0147 µM against Arginase-1 [2] and 0.023 µM in experiment [3].

By Ki is commonly meant the equilibrium dissociation constant of an inhibitor or competing ligand from its target. For `N[C@@H](CCCCC=O)C(=O)O`, the Ki on Arginase-1 [4] is 60 µM.

For the molecule `CN[C@@H]1C[C@@H]2C[C@@](N)(C(=O)O)[C@@H](CCCB(O)O)[C@@H]2[C@H]1F`, half-maximal inhibition against Arginase-1 [2] (IC50) was put at 0.0069 µM.

For `CN(C)C[C@@H]1CC[C@@H](CCB(O)O)C[C@]1(N)C(=O)O`, the IC50 in experiment [5] stood at 0.039 µM.

`N[C@@](CCCCB(O)O)(C(=O)O)C1CC(NCCCc2ccccc2)C1` (stereo partly drawn) had an IC50 in experiment [3] of 0.026 µM.

Regarding `CC(C)(C)[C@H](N)C(=O)N[C@H]1CN[C@H](C(=O)O)[C@@H]1CCCB(O)O`, the IC50 at Arginase-1 [6] is < 0.001 µM.
